In test [1] the test system is PC-12. Description: Induction of neurite outgrowth in rat PC-12 cells at 1 to 30 uM incubated for 48 hrs. The settings on record: dose 1-30 µM. It is filed as functional, cell-based.
For test [2], the target named is Acetylcholinesterase (Homo sapiens) (UniProt P22303). Description: Inhibition of AChE (unknown origin) at 1 to 25 uM. The settings on record: dose 1-25 µM.
Test [3] relates to PC-12. Description: Induction of neurite outgrowth in rat PC-12 cells at 1 to 30 uM incubated for 48 hrs in presence of NGF. It counts as functional, cell-based. As to conditions: dose 1-30 µM.
The subject of test [4] is PC-12. Description: Induction of neurite outgrowth in rat PC-12 cells assessed as cell elongation at 30 uM incubated for 48 hrs in presence of NGF. It is filed as functional, cell-based.

Activity calls are given as the source filed them. The rule behind the calls is not given here.

Acetylcholinesterase (Homo sapiens), sequence (P22303 whole entry): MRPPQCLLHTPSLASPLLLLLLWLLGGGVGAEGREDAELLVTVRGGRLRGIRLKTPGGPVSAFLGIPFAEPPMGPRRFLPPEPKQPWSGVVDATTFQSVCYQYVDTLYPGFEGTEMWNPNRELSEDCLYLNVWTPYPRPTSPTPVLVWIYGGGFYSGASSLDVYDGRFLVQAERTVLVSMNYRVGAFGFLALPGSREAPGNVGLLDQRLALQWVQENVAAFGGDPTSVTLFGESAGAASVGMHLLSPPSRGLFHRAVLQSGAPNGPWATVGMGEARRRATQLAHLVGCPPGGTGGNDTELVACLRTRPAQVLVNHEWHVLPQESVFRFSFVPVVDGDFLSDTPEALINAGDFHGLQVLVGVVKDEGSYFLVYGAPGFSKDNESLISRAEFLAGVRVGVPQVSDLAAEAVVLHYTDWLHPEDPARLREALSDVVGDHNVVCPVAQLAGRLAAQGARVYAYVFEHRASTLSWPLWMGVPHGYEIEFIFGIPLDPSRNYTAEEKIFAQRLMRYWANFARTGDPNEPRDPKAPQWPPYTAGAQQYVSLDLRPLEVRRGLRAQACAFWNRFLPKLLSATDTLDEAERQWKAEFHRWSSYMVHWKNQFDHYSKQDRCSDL

`Oc1ccc(CC2COc3ccccc3C2)cc1` (stereo not drawn): the result in the test on PC-12 [1] was inactive. Moreover, the inhibition entry in test [2] is “inactive”. Further, the result in the test with PC-12 [3] and in the test with PC-12 [4] was Active.
For `Oc1ccc(CC2COc3ccccc3C2)cc1O` (stereo not drawn), the outcome in the test on PC-12 [1] was inactive. The inhibition result in test [2] is “Active”. The result in the test with PC-12 [3] and in the test with PC-12 [4] was Active.
For the compound `O=C(O)/C=C/c1ccc(O)c(O)c1`, the inhibition result in test [2] was “Active”.
Take `O=c1c(Cc2ccc(O)c(O)c2)coc2ccccc12`: the result in the test with PC-12 [1] was inactive. The inhibition entry in test [2] is “Active”. The outcome in the test on PC-12 [3] and with PC-12 [4] was Active.
Regarding `CN(C)C(=O)Oc1cccc([N+](C)(C)C)c1`, the inhibition entry in test [2] is “Active”.
For the compound `Oc1ccc2c(c1)OCC(Cc1ccc(O)c(O)c1)C2` (racemic), the result with PC-12 [1] was inactive. In addition, the inhibition entry in test [2] was “Active”. The result in the test with PC-12 [3] and with PC-12 [4] was Active.

The record behind these values is ChEMBL document CHEMBL4673275, “Synthesis and biological activity of (±)-7,3',4'-trihydroxyhomoisoflavan and its analogs” (Bioorg Med Chem Lett, 2021).
